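Method: 48-hour compound exposure of cells in 96-well plates, five concentrations, linear interpolation of endpoints. At the TGI there is no net growth.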

Common to all, as to experiment: inhibition of tumour cell growth, NCI panel, 48 h
For assay [1], the system named is CCRF-CEM leukemia.
The test system of assay [2] is EKVX NSCLC.
Assay [3] relates to MDA-MB-231 breast.
The test system of assay [4] is MDA-N.
Assay [5] deals with MOLT-4 leukemia.
In assay [6] the test system is RPMI-8226 leukemia.
For assay [7], the system named is SK-MEL-5 melanoma.
Assay [8] has as its system SNB-19 CNS.
Assay [9] deals with TK-10 renal.
The subject of assay [10] is UO-31 renal.

With `CN(NC(=O)c1ccco1)C1=NCCCCN1`, the TGI in assay [1], in assay [2], in assay [3], in [4], in [5] and in assay [6] was > 100 µM each time. Moreover, the TGI in assay [7], in assay [8], in assay [9] and in [10] was > 100 µM each time.
`N#Cc1[nH]c(=O)n(-c2ccc([N+](=O)[O-])cc2)c1N`: the TGI in assay [1], in assay [2], in assay [3], in assay [4], in assay [5] and in [6] was > 10 µM each time. For the same molecule, the TGI in [7], in [8], in assay [9] and in assay [10] was > 10 µM in each case.
Consider `O=C(CCSC(CC(=O)c1ccc(Cl)cc1)c1ccc(Cl)cc1)Nc1ccc(Cl)cc1` (centres undefined), for which the TGI amounted to 5.55 µM in assay [1]; 25.4 µM in assay [2]; 33.4 µM in assay [3]; 26 µM in assay [4]; 11.5 µM in [5]; 5.57 µM in [6]. The TGI in assay [7] amounted to 29.4 µM; in assay [8], 26.6 µM; in assay [9], 29.9 µM; in assay [10], 26.9 µM.
On to `COc1c2nc(CCl)n(C)c(=O)c2c(OC)c2c(=O)n(C)c(CCl)nc12`, for which the TGI was 2.09 µM in assay [1]; 11.8 µM in assay [2]; 2.88 µM in assay [3]; 3.31 µM in assay [4]; 1.54 µM in assay [5]; 1.64 µM in assay [6]. Further, the TGI in assay [7] came out at 4.96 µM; in assay [8] it was 5.07 µM; in [9], 1.76 µM; in [10] it was 2.49 µM.
Take `CN1CC(c2ccccc2)=Cc2c1ccc(N)c2N=N`: the TGI in assay [1], in assay [2], in assay [3], in assay [4], in assay [5] and in assay [6] was > 100 µM in each case. Moreover, the TGI in [7], in assay [8], in [9] and in assay [10] was > 100 µM in each case.
Take `COc1c(C2(c3ccc(F)cc3)SCCCS2)c(=O)c1=O`: the TGI in assay [1], in [2], in assay [3], in [4], in assay [5] and in assay [6] was > 100 µM in each case. Also, the TGI in assay [7], in assay [8], in assay [9] and in [10] was > 100 µM throughout.
Turning to `CCOC(=O)c1cc2cc(Cc3ccc4[nH]c(C(=O)OCC)cc4c3)ccc2[nH]1`, the TGI was > 100 µM in assay [1]; 78.9 µM in assay [2]; 37.9 µM in [3]; > 100 µM in assay [4]; > 100 µM in assay [5]; > 100 µM in assay [6]. For the same molecule, the TGI in assay [8] was 30.6 µM; in [9], 31.4 µM; in assay [10], > 100 µM.
As to `C1=C2SSC3=CC=C(SSc4ccc(s4)SSC4=CC=C(SSC(=C1)S2)S4)S3`, the TGI in assay [1], in assay [2], in assay [3], in assay [4], in [5] and in assay [6] was > 100 µM in each case. The TGI in [7], in [8], in [9] and in [10] was > 100 µM in each case.
As to `C/C(=N\Nc1nc2cc(C)ccc2s1)c1ccccn1`, the TGI was > 100 µM in [1]; > 21 µM in assay [2]; 0.93 µM in [3]; > 100 µM in assay [4]; 3.52 µM in assay [6]; 4.35 µM in [7]. Further, the values for the TGI in assay [8], in assay [9] and in [10] were 21.2 µM, > 64 µM and 11.1 µM, respectively.
Take `O=C1CC(NC(=O)C(F)(F)F)c2c(Br)sc(N3CCC(c4ccccc4)CC3)c21` (centres undefined): the TGI in assay [1] was > 100 µM; in assay [2], > 100 µM; in assay [3], 39.8 µM; in assay [4], > 100 µM; in [5], > 100 µM; in assay [7] it was 68.4 µM. Further, the TGI in assay [8] was 78.2 µM; in assay [9] it was 97.7 µM; in [10] it was > 100 µM.
With `COc1ccc(-n2c(CCCC(=O)O)nc3c2C(=O)c2ccccc2C3=O)cc1`, the TGI in assay [1], in assay [2], in [3], in assay [4], in [5] and in assay [6] was > 100 µM throughout. Further, the TGI in [8], in assay [9] and in assay [10] was > 100 µM each time.
Turning to `O=c1cnn(C2OC(CO)C(O)C(F)C2O)c(=O)[nH]1` (centres undefined), the TGI in assay [1], in [2], in assay [3], in [4], in assay [6] and in [7] was > 100 µM each time. The TGI in assay [8], in assay [9] and in assay [10] was > 100 µM in each case.
In the case of `C=C(NC(=O)C(=C)NC(=O)c1csc(C2=NC3c4csc(n4)C4NC(=O)c5csc(n5)C(C(C)(O)C(C)O)NC(=O)C5CSC(=N5)/C(=C/C)NC(=O)C(C(C)O)NC(=O)c5csc(n5)C3(CC2)NC(=O)C(C)NC(=O)C(=C)NC(=O)C(=C)NC(=O)C(C(C)C)NC2C=Cc3c(C(C)O)cc(nc3C2O)C(=O)OC4C)n1)C(N)=O` (centres undefined), the TGI was 6.8 µM in assay [1]; > 100 µM in [2]; > 100 µM in assay [3]; > 100 µM in assay [4]; 13.6 µM in assay [6]; > 100 µM in [7]. Further, the figures for the TGI in assay [8], in assay [9] and in assay [10] were 65.4 µM, > 94.8 µM and > 100 µM, respectively.

The values above are taken from PubChem BioAssay (NCI).
